Patent publication US20240174744A1, “METHODS OF TREATMENT USING PROTEIN BINDERS TO IRHOM2 EPITOPES” (SCIRHOM GMBH, priority 2021, published 2024)

Test system: LPS-induced release of TNFα from PBMCs from healthy donors
Experiment: ELISA-based TNFα release assay, PBMCs from healthy donors
Format: cell-based
Settings: Homo sapiens, PBMC; recombinant murine antibodies 1 μg/ml; Batimastat 10 μM; LPS 50 ng/ml, 2 hours
Experimental: In the following study, ELISA-based TNFα release assays were performed to analyze the inhibitory effects of the antibodies of the present disclosure on LPS-induced release of endogenous TNFα from primary human material obtained from healthy donors using peripheral blood mononuclear cells (PBMCs).
In brief, on day 1, Nunc black MaxiSorp® 96-well plates (Thermo Fisher Scientific, USA) were coated overnight with 100 μl per well of mouse anti-human TNFα capture antibody (provided as part of the DuoSet ELISA kit) at 4 μg/ml TBS at 4° C. On day 2, the capture antibody solution was removed and MaxiSorp® plates were blocked with 300 μl per well of TBS, 1% BSA at room temperature for 3 hours. […] Using an infinite M1000 (Tecan Group, Switzerland) microplate reader, the fluorescence of each well was collected at an excitation wavelength of 435 nm and an emission wavelength of 555 nm.

CNC(=O)[C@H](Cc1ccccc1)NC(=O)[C@H](CC(C)C)[C@H](CSc1cccs1)C(=O)NO [Batimastat] was tested. Which inhibition at 10 µM did it give?
The inhibition at 10 µM was 99.6%.
